# Assay results reported in US20060069132A1, “Azolecarboxamide herbicides” (priority 2004, published 2006).
# Columns and labels:
# Surinam grass = experiment: Test B pre-/postemergence herbicide test; assay type: in vivo, Urochloa decumbens; details: for Surinam Grass plant response rating: postemergence
# Summary of the method: (§1)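 Greenhouse pot assay with simultaneous preemergence (treated seed) and postemergence (2–18 cm seedlings) applications of surfactant-containing, non-phytotoxic solvent formulations. Response scored visually 13–15 days later on a 0–100 scale, 100 meaning complete control.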
# cocklebur = experiment: Test B pre-/postemergence herbicide test; assay type: in vivo, Xanthium strumarium; details: for Cocklebur plant response rating: postemergence
# Summary of the method: (§2)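 Response was scored visually 13 to 15 days after treatment against untreated greenhouse controls, 0 meaning no effect and 100 complete control. Formulations (solvent mixture plus surfactant) went onto soil after planting, onto foliage of 1- to 4-leaf plants, and onto 2-leaf plants in a flooded paddy set including rice and barnyardgrass.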
# corn = experiment: Test B pre-/postemergence herbicide test; assay type: in vivo, Zea mays; details: for Corn plant response rating: postemergence
# Summary of the method: as §1
# large crabgrass = experiment: Test B pre-/postemergence herbicide test; assay type: in vivo, Digitaria sanguinalis; details: for Crabgrass, Large plant response rating: postemergence
# Summary of the method: as §1
# giant foxtail = experiment: Test B pre-/postemergence herbicide test; assay type: in vivo, Setaria faberi; details: for Foxtail, Giant plant response rating: postemergence
# Summary of the method: as §1
# lambsquarters = experiment: Test B pre-/postemergence herbicide test; assay type: in vivo, Chenopodium album; details: for Lambsquarters plant response rating: postemergence
# Summary of the method: as §1
# morningglory = experiment: Test B pre-/postemergence herbicide test; assay type: in vivo, Ipomoea coccinea; details: for Morningglory plant response rating: postemergence
# Summary of the method: as §2
# pigweed = experiment: Test B pre-/postemergence herbicide test; assay type: in vivo, Amaranthus retroflexus; details: for Pigweed plant response rating: postemergence
# Summary of the method: as §1
# velvetleaf = experiment: Test B pre-/postemergence herbicide test; assay type: in vivo, Abutilon theophrasti; details: for Velvetleaf plant response rating: postemergence
# Summary of the method: as §1
# blackgrass = experiment: Test B postemergence herbicide test; assay type: in vivo, Alopecurus myosuroides; details: postemergence
# Summary of the method: (§3)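 Visual control ratings, 0–100 versus untreated controls, taken after 13 to 15 days in the greenhouse. Blackgrass received a postemergence spray at the 1- to 4-leaf stage (2–18 cm); ducksalad, umbrella sedge and barnyardgrass were flooded-paddy treated at 2 leaves.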
# wheat = experiment: Test B postemergence herbicide test; assay type: in vivo, Triticum aestivum; set-up: key to Wheat plant response rating: 0 = no effect, 100 = complete control; details: postemergence
# Summary of the method: (§4)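 Visual ratings, 0 (no effect) to 100 (complete control), made versus controls after 13–15 d greenhouse. Paddy plants treated at 2-leaf stage; postemergence plants at 1- to 4-leaf stage, 2–18 cm tall.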
# wild oat = experiment: Test B postemergence herbicide test; assay type: in vivo, Avena fatua; details: postemergence
# Summary of the method: as §4
# rice = experiment: Test B flooded paddy test; assay type: in vivo, Oryza sativa; details: 1000 g ai/ha, scale 0 to 100 (0 no effect, 100 complete control)
# Summary of the method: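 Greenhouse test; postemergence application to plants at 1–4 leaves (2–18 cm); paddy species at 2 leaves; evaluated visually vs controls at 13–15 days; scale 0–100 (100 = complete control).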
# [1] = test system: small flower umbrella sedge; experiment: Test B flooded paddy test; assay type: in vivo, Cyperus difformis; details: 1000 g ai/ha, scale 0 to 100 (0 no effect, 100 complete control)
# Summary of the method: as §3
# barnyardgrass = experiment: Test B flooded paddy test; assay type: in vivo, Echinochloa crus-galli; details: 1000 g ai/ha, scale 0 to 100 (0 no effect, 100 complete control)
# Summary of the method: as §3
# [2] = 125 g ai/ha, 0 = no effect, 100 = complete control, preemergence
# [3] = 125 g ai/ha, visual rating, scale 0 (no effect) to 100 (complete control)
# [4] = 500 g ai/ha, visual rating, 0 = no effect, 100 = complete control, preemergence
# [5] = 500 g ai/ha, scale 0 to 100, 0 is no effect, 100 is complete control
smiles,measurement,setting,value
CCOC(=O)c1ccc(F)c(NC(=O)c2cc(C3(C)CC3)nn2CC)c1 [Compound 296],Surinam Grass plant response rating (0 to 100 scale),Surinam grass; [2],20
same,Surinam Grass plant response rating,Surinam grass; [3],40
same,"Plant response rating, Surinam Grass",Surinam grass; [4],60
same,Surinam Grass plant response rating,Surinam grass; [5],50
same,Cocklebur plant response rating (0 to 100 scale),cocklebur; [2],0
same,Cocklebur plant response rating,cocklebur; [3],50
same,"Plant response rating, Cocklebur",cocklebur; [4],0
same,Cocklebur plant response rating,cocklebur; [5],60
same,Corn plant response rating (0 to 100 scale),corn; [2],30
same,Corn plant response rating,corn; [3],30
same,"Plant response rating, Corn",corn; [4],40
same,Corn plant response rating,corn; [5],70
same,"Crabgrass, Large plant response rating (0 to 100 scale)",large crabgrass; [2],40
same,"Crabgrass, Large plant response rating",large crabgrass; [3],30
same,"Plant response rating, Crabgrass, Large",large crabgrass; [4],100
same,"Crabgrass, Large plant response rating",large crabgrass; [5],60
same,"Foxtail, Giant plant response rating (0 to 100 scale)",giant foxtail; [2],70
same,"Foxtail, Giant plant response rating",giant foxtail; [3],60
same,"Plant response rating, Foxtail, Giant",giant foxtail; [4],90
same,"Foxtail, Giant plant response rating",giant foxtail; [5],60
same,Lambsquarters plant response rating (0 to 100 scale),lambsquarters; [2],90
same,Lambsquarters plant response rating,lambsquarters; [3],50
same,"Plant response rating, Lambsquarters",lambsquarters; [4],100
same,Lambsquarters plant response rating,lambsquarters; [5],70
same,Morningglory plant response rating (0 to 100 scale),morningglory; [2],10
same,Morningglory plant response rating,morningglory; [3],50
same,"Plant response rating, Morningglory",morningglory; [4],20
same,Morningglory plant response rating,morningglory; [5],80
same,Pigweed plant response rating (0 to 100 scale),pigweed; [2],70
same,Pigweed plant response rating,pigweed; [3],80
same,"Plant response rating, Pigweed",pigweed; [4],80
same,Pigweed plant response rating,pigweed; [5],100
same,Velvetleaf plant response rating,velvetleaf; [3],90
same,"Plant response rating, Velvetleaf",velvetleaf; [4],80
same,Velvetleaf plant response rating,velvetleaf; [5],100
same,Blackgrass plant response rating,blackgrass; [3],30
same,Blackgrass plant response rating,blackgrass; [5],40
same,Wheat plant response rating,wheat; [3],20
same,Wheat plant response rating,wheat; [5],30
same,"Oat, Wild plant response rating",wild oat; [3],30
same,"Oat, Wild plant response rating",wild oat; [5],40
same,Rice plant response rating,rice,60
same,"Sedge, Umbrella plant response rating",[1],80
same,Barnyardgrass plant response rating,barnyardgrass,80
